Drawing on PubChem BioAssay (NCI), this text covers GI50 and TGI for 15 molecules.

Holding throughout (assay): growth of human tumour cells (NCI), 48 h
The subject of test [1] is UACC-257 melanoma.
Test [2] concerns HCT-116 colon.
In test [3] the test system is RPMI-8226 leukemia.
Test [4] concerns NCI-H23 lung.
The subject of test [5] is TK-10 renal.
The subject of test [6] is K-562 leukemia.
Test [7] relates to PC-3 prostate.
In test [8] the test system is NCI/ADR-RES ovarian.
The test system of test [9] is CCRF-CEM leukemia.
The subject of test [10] is MALME-3M melanoma.

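Test compounds were applied to cells in 96-well plates for 48 hours at 5 doses. GI50 = concentration required for 50% inhibition of growth. TGI denotes the concentration required for complete inhibition of growth.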 Some results are limits rather than exact numbers.

`c1ccc(C2=Nc3ccccc3N3CNN=C23)cc1`: the GI50 in test [1] is more than 100 µM; in test [2] it was more than 100 µM; in test [3], 31.6 µM; in [4], more than 100 µM; in test [5], 79.4 µM; in [6], 90.1 µM. The GI50 in test [7], in test [8], in [9] and in test [10] was more than 100 µM in each case. For the same molecule, the TGI in test [1], in test [2], in test [3], in test [4], in [5] and in test [6] was more than 100 µM each time. Also, the TGI in test [7], in test [8], in [9] and in [10] was more than 100 µM each time.
As to `Nc1nc(N)c2c(Cl)c(CNc3ccc(Cl)c(Cl)c3)ccc2n1`, the TGI in test [1] amounted to 19.4 µM; in test [2], 12.4 µM; in [3], 12.5 µM; in test [4], 5.43 µM; in [5], 12.4 µM; in [6], 2.97 µM. The TGI in [7] was 12.7 µM; in test [8] it was 18.7 µM; in test [9], 12.1 µM; in [10], 12.8 µM.
For the molecule `CCN(CC)CCOc1ccc2c(-c3ccccc3)c(-c3ccc(OC)cc3)c(=O)oc2c1`, the GI50 is 2.47 µM in test [1]; 2.78 µM in test [2]; 2.56 µM in test [3]; 4.11 µM in test [4]; 11.6 µM in test [5]; 2.55 µM in test [6]. In addition, the GI50 in test [7] was 4.19 µM; in test [8], 4.51 µM; in test [9] it was 3.34 µM; in test [10], 1.28 µM. Also, the TGI is 7 µM in [1]; 10.5 µM in test [2]; 11.8 µM in test [3]; 16.5 µM in [4]; 25.2 µM in test [5]; 10.5 µM in test [6]. Also, the TGI turned out to be 18.3 µM in [7], 17.5 µM in test [8], 15.4 µM in test [9] and 3.08 µM in test [10].
Turning to `N=C1C(c2nc3ccccc3c(=O)[nH]2)=C(O)CN1c1cccc(Cl)c1`, the GI50 in test [1] is more than 100 µM; in test [2] it was 2.79 µM; in [3], 2.15 µM; in test [4], 4.67 µM; in [5], 6.68 µM; in test [6] it was 1.39 µM. Besides, the GI50 in [7] is 2.69 µM; in test [8], 3.16 µM; in test [9], 2.88 µM; in [10], 1.03 µM. Besides, the TGI is more than 100 µM in [1]; more than 100 µM in test [2]; 6.37 µM in test [3]; more than 100 µM in [4]; more than 50.6 µM in test [5]; more than 100 µM in [6]. Also, the TGI in test [7] is more than 29.5 µM; in test [8] it was more than 100 µM; in [9] it was more than 100 µM; in test [10], 10.7 µM.
For `C=CCc1cc(O)ccc1O`, the GI50 was more than 100 µM in [1]; 16.8 µM in [2]; 2.6 µM in [3]; more than 100 µM in [4]; 24.9 µM in test [5]; 17.7 µM in test [6]. The GI50 in test [7] is 12.5 µM; in test [8], 22.7 µM; in test [9], 2.34 µM; in test [10] it was 23.6 µM. Moreover, the TGI was more than 100 µM in [1]; 31.1 µM in [2]; 34.1 µM in test [3]; more than 100 µM in test [4]; 69.2 µM in test [5]; more than 100 µM in test [6]. For the same molecule, the TGI in [7] is more than 100 µM; in [8], more than 100 µM; in test [9] it was 14.5 µM; in [10] it was more than 100 µM.
In the case of `N#Cc1c(-c2ccccc2)nc(SCC(O)CN2CCOCC2)nc1N1CCOCC1` (centres undefined), the GI50 was 2.88 µM in test [1]; 32.4 µM in test [2]; 7.78 µM in test [3]; 37.5 µM in test [4]; 10.9 µM in test [5]; 20 µM in test [6]. Also, the GI50 is 2.42 µM in test [7], 39.5 µM in test [8], 88 µM in test [9] and 4.73 µM in test [10]. Further, the TGI in test [1] was 45.7 µM; in test [2] it was more than 100 µM; in test [3] it was 41.6 µM; in test [4], more than 100 µM; in test [5], more than 100 µM; in [6] it was more than 100 µM. Moreover, the TGI is 7.7 µM in test [7], more than 100 µM in test [8], more than 100 µM in test [9] and more than 100 µM in [10].
For the molecule `CN1C(=O)[C@@H](CC2CCCC2)N(C2CCCC2)c2nc(Nc3cc(Cl)c(O)c(Cl)c3)ncc21`, the GI50 was 25.1 µM in test [1]; 13.1 µM in test [2]; 10.4 µM in test [3]; 31.3 µM in test [4]; 27.2 µM in [5]; 14.6 µM in test [6]. For the same molecule, the GI50 was 14.1 µM in test [7], 20.7 µM in test [8], 18.6 µM in [9] and 20.7 µM in [10]. For the same molecule, the TGI in test [1] is more than 100 µM; in test [2], 30.4 µM; in test [3], 49 µM; in [4] it was more than 100 µM; in test [5], more than 100 µM; in [6], more than 100 µM. In addition, the TGI in [7] is more than 100 µM; in [8], more than 100 µM; in [9], 84.2 µM; in [10], 75.2 µM.
As to `O=C(Nc1nc2ccc(OC(F)(F)F)cc2s1)c1ccc(F)cc1`, the GI50 in [1] is 3.57 µM; in test [2], 2.98 µM; in test [3] it was 2.52 µM; in test [4] it was 2.9 µM; in test [5], 4.06 µM; in [6] it was 3.58 µM. The GI50 is 2.81 µM in test [7], 3.35 µM in [8], 3.96 µM in test [9] and 2.93 µM in test [10]. In addition, the TGI in test [1] was 26.7 µM; in test [2], 10.1 µM; in test [3], 8.08 µM; in [4], 8.73 µM; in test [5] it was more than 100 µM; in [6], more than 100 µM. For the same molecule, the TGI was 8.7 µM in test [7], 16.4 µM in test [8], more than 100 µM in [9] and 8.06 µM in test [10].
On to `CN1CCC(=C(c2ccc(Cl)cc2)c2ccccn2)CC1`, for which the GI50 in [1] was 21.5 µM; in [2], 66.5 µM; in test [3], more than 100 µM; in test [4], more than 100 µM; in [5] it was more than 100 µM; in test [6] it was 74.7 µM. Besides, the GI50 was 80.5 µM in test [7], more than 100 µM in [8], 4.37 µM in test [9] and 40.9 µM in test [10]. Further, the TGI was 45.8 µM in test [1]; more than 100 µM in test [2]; more than 100 µM in test [3]; more than 100 µM in test [4]; more than 100 µM in test [5]; more than 100 µM in test [6]. Besides, the TGI in [7], in test [8], in [9] and in [10] was more than 100 µM in each case.
For the molecule `Cn1cc(Nc2nccc(-c3ccc4c(c3)CN(C3COC3)CC[C@H]4NC(=O)c3cn(C(C)(C)C)nn3)n2)cn1`, the GI50 is more than 100 µM in test [1]; 73.6 µM in [2]; more than 100 µM in test [3]; more than 100 µM in [4]; 59.5 µM in test [5]; 28 µM in test [6]. Also, the GI50 is more than 100 µM in [7], more than 100 µM in test [8], more than 100 µM in test [9] and 38 µM in [10]. Moreover, the TGI in [1], in test [2], in test [3], in test [4], in [5] and in [6] was more than 100 µM each time. Further, the TGI in [7], in test [8], in test [9] and in test [10] was more than 100 µM throughout.
On to `NC(=O)NC(=O)Nc1ccc(Br)cc1`, for which the TGI in test [1] was more than 100 µM; in test [2], more than 49.6 µM; in [3] it was more than 35 µM; in test [4], more than 33.3 µM; in test [5], more than 100 µM; in test [6], more than 100 µM. Further, the TGI was more than 100 µM in [7], more than 63.5 µM in [8], more than 15.3 µM in test [9] and more than 27.9 µM in [10].
For the molecule `Cc1ccc(/C=C(/C#N)n2nnc3cccc(F)c32)cc1`, the GI50 in test [1] was 1.13 µM; in test [2], 0.379 µM; in [3], 0.391 µM; in [4], 0.461 µM; in test [5], 1.22 µM; in test [6] it was 0.168 µM. Besides, the GI50 in test [7] is 0.412 µM; in test [8] it was 0.159 µM; in test [9], 0.389 µM; in [10], 0.488 µM. Further, the TGI is 39.9 µM in test [1]; 6.54 µM in test [2]; 12 µM in test [4]; 13 µM in [5]; more than 100 µM in [6]; 14.6 µM in test [7]. Besides, the TGI in test [8] is 0.848 µM; in test [9], more than 100 µM; in test [10], 17.6 µM.
As for `CC(C)(Oc1cccc(N2CCC[C@@H](C(=O)N(Cc3ccc(-c4cn[nH]c4)cc3)C3CC3)C2)c1)C(=O)N1CCNCC1`, the GI50 in test [1] is 12.2 µM; in [2], 12.6 µM; in [3], 7.11 µM; in [4] it was 14 µM; in [5], 14.8 µM; in test [6], 3.5 µM. Moreover, the GI50 was 13.6 µM in test [7], 24.1 µM in test [8], 24.1 µM in test [9] and 11.8 µM in [10]. For the same molecule, the TGI in test [1] came to 25.9 µM; in test [2], 27.8 µM; in [3] it was 31.3 µM; in test [4] it was 28.9 µM; in [5] it was 28.4 µM; in test [6], 18.4 µM. The TGI in [7] was 39.1 µM; in test [8], 73.6 µM; in [9], more than 100 µM; in [10] it was 24.5 µM.
In the case of `N#Cc1ncc(-c2ccc(C(F)(F)F)cc2)c(NC2CCCCCC2)n1`, the GI50 was 13.7 µM in test [1]; 5.25 µM in test [2]; 4.99 µM in [3]; 6.48 µM in test [4]; 91 µM in [5]; 9.03 µM in test [6]. Further, the GI50 in test [7] was 5.67 µM; in [8], 18.1 µM; in test [9], 9.97 µM; in [10] it was more than 100 µM. Besides, the TGI in [1], in [2], in test [3], in test [4], in [5] and in test [6] was more than 100 µM throughout. The TGI in test [7], in test [8], in test [9] and in test [10] was more than 100 µM throughout.
Consider `CCc1nc(N)nc(N)c1-c1ccc(N2CCNCC2)c([N+](=O)[O-])c1`, for which the TGI in test [1] was 57.7 µM; in [2], more than 100 µM; in [3], more than 100 µM; in test [4] it was more than 100 µM; in [5], more than 100 µM; in test [6], more than 90.2 µM. In addition, the TGI in test [7] is more than 100 µM; in test [8], more than 100 µM; in test [9], more than 72.1 µM; in test [10], 37.3 µM.
